{
  "source": "patent US8513430B2",
  "about": "“Substituted thiazol-2-ylamine derivatives, pharmaceutical compositions, and methods of use as 11-beta HSD1 modulators” (High Point Pharmaceuticals, LLC, priority 2010, dated 2013)",
  "data": [
    {"target": "T1, 11βHSD1 (Homo sapiens, UniProt P28845)", "T1 construct": "from tissue", "T1 sequence (P28845 whole entry)": "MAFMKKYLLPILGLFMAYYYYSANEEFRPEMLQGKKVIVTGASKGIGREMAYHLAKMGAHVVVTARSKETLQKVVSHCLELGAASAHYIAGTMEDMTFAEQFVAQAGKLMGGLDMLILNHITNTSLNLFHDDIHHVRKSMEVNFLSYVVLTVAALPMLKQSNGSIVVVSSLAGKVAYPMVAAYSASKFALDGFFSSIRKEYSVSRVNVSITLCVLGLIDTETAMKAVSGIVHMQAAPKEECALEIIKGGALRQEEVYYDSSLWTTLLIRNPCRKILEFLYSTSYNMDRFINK", "test": "in vitro 11β-HSD assay (human microsomes, CISBIO cortisol kit)", "format": "biochemical", "conditions": "160 nM cortisone, 200 μM NADPH, 2 h at 37° C., pH 6.0", "experimental": "The following assay methods were used to identify and evaluate compounds of Formula (I) that are effective in modulating 11βHSD1.\nCISBIO Cortisol kit #62CO2PEB\nAssay Buffer: (water based) used for Enzyme, Compounds and Microsomes: 20 mM Tris, 5 mM EDTA, and pH 6.0.\nEnzyme Buffer: 333 μM NADPH (FAC 200 μM) and 266 nM Cortisone (FAC 160 nM).\n1) Test compounds (10 mM stock in 100% DMSO) were diluted in Assay Buffer (see below) with 1% DMSO FAC and placed into the 96-well plate. Test compounds were typically tested over 10 concentrations (30 μM-0.3 nM).\n2) 30 μL Enzyme Buffer, 10 μL Test Compound, 10 μL human microsomes were added to the test compounds and mixed gently by tapping the plate.\n3) The plates were incubated for 2 h at 37° C.\n4) 25 μL anti Cortisol-K and 25 μL Cortisol d2 were added to the plate and mixed gently by tapping the plate.\n5) The plates were incubated at room temperature for 2 h.\n6) The plates were read on an Envision model 2120 Perkin-Elmer using emission filters #205 and #217.", "units": {"EC50": "nM"}, "values": [
      {"smiles": "O=C(N[C@H]1C2CC3CC1C[C@](O)(C3)C2)c1csc(NCc2ccco2)n1", "note": "[Example 1, 2-[(Furan-2-ylmethyl)-amino]-thiazole-4-carboxylic acid [(E)-5-hydroxy-adamantan-2-yl]-amide]", "EC50": 360},
      {"smiles": "O=C(N[C@H]1C2CC3CC1C[C@](O)(C3)C2)c1csc(Nc2ccc(Cl)cn2)n1", "note": "[Example 2, 2-(5-Chloro-pyridin-2-ylamino)-thiazole-4-carboxylic acid [(E)-5-hydroxyadamantan-2-yl]-amide]", "EC50": 31},
      {"smiles": "O=C(N[C@H]1C2CC3CC1C[C@](O)(C3)C2)c1csc(Nc2ccncc2)n1", "note": "[Example 3, 2-(Pyridin-4-ylamino)-thiazole-4-carboxylic acid [(E)-5-hydroxy-adamantan-2-yl]-amide]", "EC50": 110},
      {"smiles": "O=C(N[C@H]1C2CC3CC1C[C@](O)(C3)C2)c1csc(Nc2cccnc2)n1", "note": "[Example 4, 2-(Pyridin-3-ylamino)-thiazole-4-carboxylic acid [(E)-5-hydroxy-adamantan-2-yl]-amide]", "EC50": 26},
      {"smiles": "O=C(N[C@H]1C2CC3CC1C[C@](O)(C3)C2)c1csc(Nc2ccccn2)n1", "note": "[Example 5, 2-(Pyridin-2-ylamino)-thiazole-4-carboxylic acid [(E)-5-hydroxy-adamantan-2-yl]-amide]", "EC50": 4000},
      {"smiles": "O=C(N[C@H]1C2CC3CC1C[C@](O)(C3)C2)c1csc(NCCc2ccccc2)n1", "note": "[Example 6, 2-(2-Phenyl-ethylamino)-thiazole-4-carboxylic acid [(E)-5-hydroxy-adamantan-2-yl]-amide]", "EC50": 11},
      {"smiles": "O=C(N[C@H]1C2CC3CC1C[C@](O)(C3)C2)c1csc(NCCc2ccccn2)n1", "note": "[Example 7, 2-(2-Pyridin-2-yl-ethylamino)-thiazole-4-carboxylic acid [(E)-5-hydroxy-adamantan-2-yl]-amide]", "EC50": 127},
      {"smiles": "O=C(N[C@H]1C2CC3CC1C[C@](O)(C3)C2)c1csc(Nc2ccc(C(F)(F)F)cc2)n1", "note": "[Example 8, 2-(4-Trifluoromethyl-phenylamino)-thiazole-4-carboxylic acid [(E)-5-hydroxy-adamantan-2-yl]-amide]", "EC50": 13},
      {"smiles": "COc1ccc(Nc2nc(C(=O)N[C@H]3C4CC5CC3C[C@](O)(C5)C4)cs2)cc1", "note": "[Example 9, 2-(4-Methoxy-phenylamino)-thiazole-4-carboxylic acid [(E)-5-hydroxy-adamantan-2-yl]-amide]", "EC50": 2},
      {"smiles": "O=C(N[C@H]1C2CC3CC1C[C@](O)(C3)C2)c1csc(Nc2ccc(Cl)cc2)n1", "note": "[Example 10, 2-(4-Chloro-phenylamino)-thiazole-4-carboxylic acid [(E)-5-hydroxy-adamantan-2-yl]-amide]", "EC50": 8.7},
      {"smiles": "O=C(N[C@H]1C2CC3CC1C[C@](O)(C3)C2)c1csc(Nc2ccc(F)cc2)n1", "note": "[Example 11, 2-(4-Fluoro-phenylamino)-thiazole-4-carboxylic acid [(E)-5-hydroxy-adamantan-2-yl]-amide]", "EC50": 2.7},
      {"smiles": "O=C(N[C@H]1C2CC3CC1C[C@](O)(C3)C2)c1csc(Nc2ccc(Cl)c(Cl)c2)n1", "note": "[Example 12, 2-(3,4-Dichloro-phenylamino)-thiazole-4-carboxylic acid [(E)-5-hydroxy-adamantan-2-yl]-amide]", "EC50": 112},
      {"smiles": "O=C(N[C@H]1C2CC3CC1C[C@](O)(C3)C2)c1csc(NCc2cccnc2)n1", "note": "[Example 13, 2-[(Pyridin-3-ylmethyl)-amino]-thiazole-4-carboxylic acid [(E)-5-hydroxy-adamantan-2-yl]-amide]", "EC50": 39},
      {"smiles": "O=C(N[C@H]1C2CC3CC1C[C@](O)(C3)C2)c1csc(NCc2ccccc2)n1", "note": "[Example 14, 2-Benzylamino-thiazole-4-carboxylic acid [(E)-5-hydroxy-adamantan-2-yl]-amide]", "EC50": 78},
      {"smiles": "O=C(N[C@H]1C2CC3CC1C[C@](O)(C3)C2)c1csc(NCCc2cccnc2)n1", "note": "[Example 15, 2-(2-Pyridin-3-yl-ethylamino)-thiazole-4-carboxylic acid [(E)-5-hydroxy-adamantan-2-yl]-amide]", "EC50": 165},
      {"smiles": "O=C(N[C@H]1C2CC3CC1C[C@](O)(C3)C2)c1csc(NCCc2ccncc2)n1", "note": "[Example 16, 2-(2-Pyridin-4-yl-ethylamino)-thiazole-4-carboxylic acid [(E)-5-hydroxy-adamantan-2-yl]-amide]", "EC50": 369},
      {"smiles": "O=C(N[C@H]1C2CC3CC1C[C@](O)(C3)C2)c1cnc(Nc2ccc(Cl)cn2)s1", "note": "[Example 17, 2-(5-Chloro-pyridin-2-ylamino)-thiazole-5-carboxylic acid [(E)-5-hydroxy-adamantan-2-yl]-amide]", "EC50": 31},
      {"smiles": "Cc1nc(NCCc2ccccc2)sc1C(=O)N[C@H]1C2CC3CC1C[C@](O)(C3)C2", "note": "[Example 18, 4-Methyl-2-phenethylamino-thiazole-5-carboxylic acid [(E)-5-hydroxy-adamantan-2-yl]-amide]", "EC50": 48}
    ]},
    {"target": "T1, 11βHSD1", "test": "Human adipocytes cell based assay (cortisone to cortisol, ELISA)", "conditions": "human omental adipocytes, 300 nM cortisone, 24 hours at 37° C.", "experimental": "Human Adipocytes Cell Based Assay\nCells were ordered from ZenBio, RTP, NC (www.zen-bio.com (OA-1096-3)) pre-plated (96 well). Cell Media was supplied by ZenBio (Omental Adipocyte Medium #OM-AM).\nTest compounds were prepared at 10 concentrations (10 μM-0.1 nM). Dilutions were made up in Cell Media. Cell Media from the plate is aspirated and 97 μL was added to the wells.\nThe plates were incubated for 15 minutes (37° C.).\n3 μL of […] cortisone (Sigma #C2755) (300 nM FAC) was added, for a total well volume of 100 μL.\nThe plates were incubated for 24 hours (37° C.).\nThe media was harvested from cells.\nThe samples were then assayed using Cortisol ELISA Kits (R & D Systems #SKGE008). Samples were diluted by a factor of 5. Specific instructions were included in the kit to quantify presence of cortisol in samples through an ELISA assay.\nThe plates were read on a Spectramax at 450 nm OD.", "units": {"IC50": "µM"}, "values": [
      {"smiles": "O=C(N[C@H]1C2CC3CC1C[C@](O)(C3)C2)c1csc(Nc2ccc(Cl)cn2)n1", "note": "[Example 2, 2-(5-Chloro-pyridin-2-ylamino)-thiazole-4-carboxylic acid [(E)-5-hydroxyadamantan-2-yl]-amide]", "IC50": 0.019}
    ]}
  ]
}
